Data taken from patent US9562035B2, “Benzamide derivative useful as FASN inhibitors for the treatment of cancer” (Janssen Pharmaceutica NV, priority 2013, dated 2017).

Columns and labels:
[1] = biological target: T1, hFASN enzyme (full length) (Homo sapiens, UniProt P49327); assay: Fatty Acid Synthase (FASN) Inhibition Scintillation Proximity Assay; format: biochemical; conditions: for IC50: mean where tested more than once, ~ = standard error of pIC50 larger than 0.5; for inhibition at 10 µM: read-out: FASN % Effect @1E−05M
T1 construct: 10 μL hFASN enzyme (full length, 300 ng, purified in house); made in house
Description: In this assay, inhibition of FASN activity is measured using ^3H-acetyl-CoA and malonyl-CoA as substrates. ^3H-Acetyl CoA is converted to ^3H-palmitate through a series of reactions by the FASN protein, which contains 7 functional domains and carries out 7 enzymatic reactions to ultimately produce ^3H-palmitate. The assay principle is based upon the fact that ^3H-acetyl-CoA is hydrophilic and the end product, ^3H-palmitate is hydrophobic.
10 μL assay buffer (100 mM KH2PO4 pH 7.5, 1 mM DTT) (20 μL in blanks) was added to a 384-well white Opti Plate plate (Perkin Elmer). 0.9 μL test compound (at concentrations of 30 μM, 10 μM, 3 μM, 1 μM, 0.30 μM, 0.10 μM, 0.03 μM and 0.01 μM)/DMSO and 10 μL hFASN enzyme (full length, 300 ng, purified in house) or 10 μL assay buffer was added to the wells. Then 10 μL 450 μM NADPH (Sigma N7505), 18.75 μM [^3H]-acetyl-CoA (Perkin Elmer NET-290L), 150 μM malonyl-CoA (Sigma M4263) were added, mixed and incubated at room temperature for 60 minutes. The reaction was stopped by adding 20 μL Streptavidin coupled imaging beads (25 mg/ml). After incubation for 30 minutes at room temperature in the dark, the 384 well plate was centrifuged at 1500 rpm for 3 minutes and was measured after at least 24 hrs by the LEADseeker™, measuring emission using a 610±20 nm pass filter. (Bays, N. W., et al., “A simplified scintillation proximity assay for fatty acid synthase activity: development and comparison with other FAS activity assays”, J. Biomol. Screen, 2009, pp 636-642, Vol. 14(6).)
(§1) Raw data generated by the instrument were normalized to % Controlmin values, which were calculated as: % Controlmin=100*(x−mLC)/(mHC−mLC)
(§2) where mLC and mHC were the means of the low control wells and high control wells on the plate, after manual exclusion of outliers. A plot of Controlmin versus test compound concentration was fitted to a 4-parameter logistic curve using a non-linear least squares regression method. From the plot, an IC50 (concentration at which 50% inhibition is achieved) was calculated. pIC50 values were calculated as −log(IC50), when IC50 is expressed in molar units.

[2] = biological target: T2, FASN Keto-reductase Domain (Homo sapiens, UniProt P49327); assay: Fatty Acid Synthase Keto-Reductase Domain (FASN KR) Inhibition; format: biochemical; conditions: mean where tested more than once; read-out: FASN K-R Domain pIC50 (converted)
T2 construct: 10 μL hFASN enzyme (full length, 300 ng, purified in house) and 360 μM NADPH; made in house
Description: 10 μL assay buffer (100 mM KH2PO4 pH 7.5) was added to a 384-well clear plate (costar 3702). 0.3 μL compound (at concentrations of 30 μM, 10 μM, 3 μM, 1 μM, 0.30 μM, 0.10 μM, 0.03 μM and 0.01 μM)/DMSO, 10 μL hFASN enzyme (full length, 300 ng, purified in house) and 360 μM NADPH (except in blank) were then added. Then, 10 μL 180 mM ethyl acetoacetate (Aldrich 688983) was added, mixed and immediately thereafter, the absorbance at 340 nm (T1) by Multiscan (Labsystems) was measured. After 20 minutes incubation at room temperature the plate was measured again (T2).
The decrease in absorbance was calculated as (Absorbance before incubation T1)−(Absorbance following incubation T2).
as §1, §2

A2780 ovarian cells [3] = assay: A2780 Ovarian Cell Proliferation Assay in Lipid Reduced Medium, without Palmitate; format: cell-based; conditions: Homo sapiens, A2780; lipid reduced medium, without palmitate, 96 h, MTT; read-out: Proliferation A2780 w/o Palmitate pIC50 (converted)
Description: (§3) The biological assays described below correspond to comparative assays for ovarian cell proliferation. […] Compounds active in the absence of palmitate would not be expected to be active in the control.
(§4) 2500 cells were seeded in a 96-well clear well plate in 200 μL RPMI1640 with 10% Fetal Calf Serum (Hyclone), and incubated at 37° C., 5% CO2. Blanks were wells without cells. The next day the culture medium was aspirated and replaced by 160 μL culture medium with 10% Lipid-Reduced Serum (LRS, Hyclone). 20 μL test compound (at concentrations of 30 μM, 10 μM, 3 μM, 1 μM, 0.30 μM, 0.10 μM, 0.03 μM and 0.01 μM)/DMSO dilution followed by 20 μL ethanol-BSA solution were added to a final concentrations of 0.2% DMSO, 0.2% fatty-acid-free BSA, 0.25% ethanol. After 96 h incubation an MTT assay was performed. The absorbance was measured at 544 nm on a SPECTRAMAX.
as §1, §2
(§5) Representative compounds of the present invention were tested according to the procedure as described in Biological Example 3 above, with results as listed in Table BIO-3, below.

A2780 ovarian cells [4] = assay: A2780 Ovarian Cell Proliferation Assay in Lipid Reduced Medium, with Palmitate (control); format: cell-based; conditions: Homo sapiens, A2780; lipid reduced medium, 25 μM palmitate, 96 h, MTT; read-out: Proliferation A2780 with Palmitate pIC50 (converted)
Description: as §3
as §4, with “palmitate-BSA” for “ethanol-BSA”, “DMSO, 25 μM palmitate (Sigma, P0500, 10 mM stock solution in ethanol)” for “DMSO,”, “incubation,” for “incubation”
A best fit curve was fitted by a minimum sum of squares method, plotting Controlmin versus test compound concentration. From the plot, an IC50 (concentration at which 50% inhibition is achieved) was calculated. pIC50 values, presented in the Table below, were calculated as −log(IC50).
as §5

T2 sequence (P49327 whole entry, the tested form may be a part): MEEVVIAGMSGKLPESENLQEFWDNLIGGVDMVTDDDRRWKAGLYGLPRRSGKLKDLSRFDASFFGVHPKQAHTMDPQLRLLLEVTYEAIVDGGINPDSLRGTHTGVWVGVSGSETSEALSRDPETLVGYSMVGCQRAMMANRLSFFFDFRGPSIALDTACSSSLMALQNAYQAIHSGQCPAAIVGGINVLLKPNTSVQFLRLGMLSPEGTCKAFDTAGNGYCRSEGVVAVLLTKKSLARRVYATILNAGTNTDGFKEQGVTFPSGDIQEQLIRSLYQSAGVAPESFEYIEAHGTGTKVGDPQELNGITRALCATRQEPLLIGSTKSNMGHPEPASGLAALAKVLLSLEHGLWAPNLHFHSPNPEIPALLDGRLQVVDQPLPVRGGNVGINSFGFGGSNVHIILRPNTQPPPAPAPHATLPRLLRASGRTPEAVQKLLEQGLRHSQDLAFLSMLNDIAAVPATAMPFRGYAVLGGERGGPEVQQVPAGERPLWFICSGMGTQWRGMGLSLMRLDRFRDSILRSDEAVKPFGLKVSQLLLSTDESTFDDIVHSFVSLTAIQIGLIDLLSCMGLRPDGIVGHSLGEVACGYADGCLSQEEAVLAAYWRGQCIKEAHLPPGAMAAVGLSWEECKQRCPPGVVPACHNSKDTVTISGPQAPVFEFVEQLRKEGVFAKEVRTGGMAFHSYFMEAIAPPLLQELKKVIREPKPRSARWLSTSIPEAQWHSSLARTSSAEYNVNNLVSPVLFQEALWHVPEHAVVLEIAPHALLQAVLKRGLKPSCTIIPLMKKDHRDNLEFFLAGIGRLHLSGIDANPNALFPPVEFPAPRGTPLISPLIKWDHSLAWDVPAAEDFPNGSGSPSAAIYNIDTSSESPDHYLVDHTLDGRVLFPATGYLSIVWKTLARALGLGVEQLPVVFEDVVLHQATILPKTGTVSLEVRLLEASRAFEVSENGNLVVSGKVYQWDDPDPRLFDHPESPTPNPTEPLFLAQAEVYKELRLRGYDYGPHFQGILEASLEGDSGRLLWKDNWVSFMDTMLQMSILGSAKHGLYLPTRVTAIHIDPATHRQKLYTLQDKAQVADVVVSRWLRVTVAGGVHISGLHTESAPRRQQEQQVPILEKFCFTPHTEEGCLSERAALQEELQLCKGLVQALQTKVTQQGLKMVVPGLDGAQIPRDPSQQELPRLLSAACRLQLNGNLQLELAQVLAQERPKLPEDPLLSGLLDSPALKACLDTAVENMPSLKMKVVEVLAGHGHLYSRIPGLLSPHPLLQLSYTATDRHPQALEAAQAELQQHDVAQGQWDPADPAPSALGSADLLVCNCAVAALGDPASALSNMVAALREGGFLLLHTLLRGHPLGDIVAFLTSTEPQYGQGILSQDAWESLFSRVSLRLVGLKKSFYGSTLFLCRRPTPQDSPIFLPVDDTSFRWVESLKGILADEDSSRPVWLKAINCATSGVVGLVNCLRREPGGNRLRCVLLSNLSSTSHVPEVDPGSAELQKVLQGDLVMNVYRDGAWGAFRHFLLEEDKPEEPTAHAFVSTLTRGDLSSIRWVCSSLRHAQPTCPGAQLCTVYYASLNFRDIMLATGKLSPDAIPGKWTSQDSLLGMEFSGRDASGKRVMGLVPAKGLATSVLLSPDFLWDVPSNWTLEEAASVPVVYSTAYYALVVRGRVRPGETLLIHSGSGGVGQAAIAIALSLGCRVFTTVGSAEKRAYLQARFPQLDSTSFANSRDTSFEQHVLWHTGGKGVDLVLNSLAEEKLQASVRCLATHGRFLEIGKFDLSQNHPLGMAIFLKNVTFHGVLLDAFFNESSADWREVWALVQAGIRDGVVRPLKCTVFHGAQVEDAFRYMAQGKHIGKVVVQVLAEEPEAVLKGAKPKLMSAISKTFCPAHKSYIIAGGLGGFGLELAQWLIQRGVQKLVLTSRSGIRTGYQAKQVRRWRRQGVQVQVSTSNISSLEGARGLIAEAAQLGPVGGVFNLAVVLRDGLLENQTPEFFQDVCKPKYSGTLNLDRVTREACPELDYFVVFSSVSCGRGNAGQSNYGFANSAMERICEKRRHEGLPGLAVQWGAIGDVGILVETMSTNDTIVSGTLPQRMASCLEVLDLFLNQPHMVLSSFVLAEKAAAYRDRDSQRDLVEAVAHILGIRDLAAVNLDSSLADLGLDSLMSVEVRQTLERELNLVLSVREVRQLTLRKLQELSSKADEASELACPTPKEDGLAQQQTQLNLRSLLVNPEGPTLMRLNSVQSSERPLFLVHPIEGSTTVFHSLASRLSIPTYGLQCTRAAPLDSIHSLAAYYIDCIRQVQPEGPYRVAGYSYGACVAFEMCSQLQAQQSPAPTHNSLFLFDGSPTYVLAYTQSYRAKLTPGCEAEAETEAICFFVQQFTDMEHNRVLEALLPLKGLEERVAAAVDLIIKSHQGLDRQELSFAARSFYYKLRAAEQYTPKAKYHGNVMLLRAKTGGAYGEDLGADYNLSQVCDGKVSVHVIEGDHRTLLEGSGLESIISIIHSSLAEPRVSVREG
T1 sequence (P49327 whole entry): as the sequence (P49327 whole entry, the tested form may be a part) above

| Compound | IC50 [1] [µM] | inhibition at 10 µM [1] [%] | IC50 [2] [µM] | IC50 (A2780 ovarian cells [3]) [µM] | IC50 (A2780 ovarian cells [4]) [µM] |
| --- | --- | --- | --- | --- | --- |
| Cc1ccc(C(=O)N2CC[C@H](c3ccc(-c4ccnn4C)cc3)[C@@H](C)C2)cc1NC(=O)c1ccc(NC(C)C)nc1 (racemic) [Compound #81, (±)-6-(isopropylamino)-N-(2-methyl-5-((3R,4S)-3-methyl-4-(4-(1-methyl-1H-pyrazol-5-yl)phenyl)piperidine-1-carbonyl)phenyl)nicotinamide] | ~0.0324 | 120 | 0.1 | 0.11 | 4.27 |
| Cc1ccc(C(=O)N2CC[C@H](c3ccc(-c4ccnn4C)cc3)[C@@H](C)C2)cc1NC(=O)c1ccc(Cl)nc1 (racemic) [Compound #110, (±)-6-Chloro-N-(2-methyl-5-((3R,4S)-3-methyl-4-(4-(1-methyl-1H-pyrazol-5-yl)phenyl)piperidine-1-carbonyl)phenyl)nicotinamide] | 0.0191 | 115 | 0.132 | 0.174 | 6.31 |
| Cc1ccc(C(=O)N2CC[C@H](c3ccc(-c4ccnn4C)cc3)[C@H](C)C2)cc1NC(=O)c1ccc(Cl)nc1 (racemic) [Compound #111, (±)-6-chloro-N-(2-methyl-5-((3S,4S)-3-methyl-4-(4-(1-methyl-1H-pyrazol-5-yl)phenyl)piperidine-1-carbonyl)phenyl)nicotinamide] | 0.513 | 96 | 1.78 | 1.62 | 4.47 |
| CCC(=O)NC1CC[C@@H](C(=O)Nc2cc(C(=O)N3CC(c4ccc(-c5ccnn5C)cc4)C3)ccc2C)C1 (stereo in doubt) [Compound 64, (1R,3S)—N-(2-methyl-5-(3-(4-(1-methyl-1H-pyrazol-5-yl)phenyl)azetidine-1-carbonyl)phenyl)-3-propionamidocyclopentanecarboxamide] | 0.0347 | 102 | 0.0851 | ~0.302 | > 10 |
| Cc1ccc(C(=O)N2CC(c3ccc(-c4ccncc4)cc3)C2)cc1NC(=O)c1ccc(Cl)nc1 [Compound 3, 6-chloro-N-(2-methyl-5-(3-(4-(pyridin-4-yl)phenyl)azetidine-1-carbonyl)phenyl)nicotinamide] | 0.0257 | 106 | 0.0646 | 0.138 | 5.25 |
| Cc1ccc(C(=O)N2CC(c3ccc(-c4cnn(C)c4)cc3)C2)cc1NC(=O)c1ccc(Cl)nc1 [Compound 4, 6-chloro-N-(2-methyl-5-(3-(4-(1-methyl-1H-pyrazol-4-yl)phenyl)azetidine-1-carbonyl)phenyl)nicotinamide] | 0.0398 | 109 | 0.0977 | 0.174 | > 10 |
| Cc1ccc(C(=O)N2CC(c3ccc(-c4cccnc4)cc3)C2)cc1NC(=O)c1ccc(NC(C)C)nc1 [Compound 10, 6-(isopropylamino)-N-(2-methyl-5-(3-(4-(pyridin-3-yl)phenyl)azetidine-1-carbonyl)phenyl)nicotinamide] | 0.0324 | 103 | 0.0447 | ~0.0575 | > 15.1 |
| Cc1ccc(C(=O)N2CC(c3ccc(-c4cccc5ncccc45)cc3)C2)cc1NC(=O)c1ccc(NC(C)C)nc1 [Compound 12, 6-(isopropylamino)-N-(2-methyl-5-(3-(4-(quinolin-5-yl)phenyl)azetidine-1-carbonyl)phenyl)nicotinamide] | 0.0389 | 111 | 0.0229 | 0.049 | 2.24 |
| CCC(=O)N[C@@H]1CC[C@H](C(=O)Nc2cc(C(=O)N3CCC(c4ccc(-c5ccnn5C)cc4)CC3)ccc2C)C1 [Compound 13, (1S,3R)—N-(2-methyl-5-(4-(4-(1-methyl-1H-pyrazol-5-yl)phenyl)piperidine-1-carbonyl)phenyl)-3-propionamidocyclopentanecarboxamide] | 0.126 | 99 | 0.229 | 0.603 | > 10 |
| Cc1ccc(C(=O)N2CC(c3ccc(-c4ccc5c(cnn5C)c4)cc3)C2)cc1NC(=O)c1ccc(NC(C)C)nc1 [Compound 16, 6-(isopropylamino)-N-(2-methyl-5-(3-(4-(1-methyl-1H-indazol-5-yl)phenyl)azetidine-1-carbonyl)phenyl)nicotinamide] | 0.0955 | 106 | 0.0955 | 1.41 | > 10 |
| Cc1ccc(C(=O)N2CCC(c3ccc4c(c3)NC(=O)CC4)CC2)cc1NC(=O)c1ccc(Cl)nc1 [Compound 23, 6-chloro-N-(2-methyl-5-(4-(2-oxo-1,2,3,4-tetrahydroquinolin-7-yl)piperidine-1-carbonyl)phenyl)nicotinamide] | 0.589 | 93 | 1.17 | 1.12 | ~10 |
| Cc1ccc(C(=O)N2CC(c3ccc(-c4cnn(C)c4)cc3)C2)cc1NC(=O)c1ccc(NC(C)C)nc1 [Compound 24, 6-(isopropylamino)-N-(2-methyl-5-(3-(4-(1-methyl-1H-pyrazol-4-yl)phenyl)azetidine-1-carbonyl)phenyl)nicotinamide] | 0.0339 | 111 | 0.0389 | 0.0851 | > 10 |
| Cc1ccc(C(=O)N2CC(c3ccc(-c4ccnn4C)cc3)C2)cc1NC(=O)c1ccc(NC(C)C)nc1 [Compound 25, 6-(isopropylamino)-N-(2-methyl-5-(3-(4-(1-methyl-1H-pyrazol-5-yl)phenyl)azetidine-1-carbonyl)phenyl)nicotinamide] | 0.0282 | 109 | 0.0457 | 0.0347 | ~2.09 |
